# pEC50: −log10 of the molar value. The source made the active and inactive calls. The calls are words filed in the database; no cut-off is given here.
# Legend:
# [1] = target: T1, Peroxisome proliferator-activated receptor delta (Homo sapiens, UniProt Q03181); assay: Agonist activity at human PPARdelta expressed in HEK293 cells cotransfected with PPREx4-TK-luc assessed as activation of luciferase activity measured after 48 hrs by transactivation assay; type: cell-based
# T1 sequence (Q03181 whole entry): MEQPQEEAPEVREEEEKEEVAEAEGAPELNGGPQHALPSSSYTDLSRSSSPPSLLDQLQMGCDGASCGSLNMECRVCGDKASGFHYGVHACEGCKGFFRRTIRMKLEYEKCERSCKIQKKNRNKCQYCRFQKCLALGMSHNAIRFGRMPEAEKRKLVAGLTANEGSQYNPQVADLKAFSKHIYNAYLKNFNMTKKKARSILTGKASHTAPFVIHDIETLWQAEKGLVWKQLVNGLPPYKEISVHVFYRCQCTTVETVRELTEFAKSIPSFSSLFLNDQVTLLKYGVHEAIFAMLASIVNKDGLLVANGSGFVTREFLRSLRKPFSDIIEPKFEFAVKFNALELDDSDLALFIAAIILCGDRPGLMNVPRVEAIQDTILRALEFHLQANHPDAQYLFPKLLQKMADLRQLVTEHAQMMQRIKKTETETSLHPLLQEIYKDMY
# [2] = Cytotoxicity against human HEK293 cells assessed as cell viability at 10 uM measured after 48 hrs by MTS assay relative to vehicle control; type: cell-based; settings: read-out: Activity
# Rattus norvegicus [3] = assay: Reduction in Zucker diabetic fatty rat body weight gain at 3 mg/kg/day measured after 6 weeks (reference value: 103 g); type: functional
# [4] = target: T2, Peroxisome proliferator-activated receptor alpha (Homo sapiens, UniProt Q07869); assay: Agonist activity at human PPARalpha expressed in HEK293 cells cotransfected with PPREx4-TK-luc assessed as activation of luciferase activity measured after 48 hrs by transactivation assay; type: cell-based
# T2 sequence (Q07869 whole entry): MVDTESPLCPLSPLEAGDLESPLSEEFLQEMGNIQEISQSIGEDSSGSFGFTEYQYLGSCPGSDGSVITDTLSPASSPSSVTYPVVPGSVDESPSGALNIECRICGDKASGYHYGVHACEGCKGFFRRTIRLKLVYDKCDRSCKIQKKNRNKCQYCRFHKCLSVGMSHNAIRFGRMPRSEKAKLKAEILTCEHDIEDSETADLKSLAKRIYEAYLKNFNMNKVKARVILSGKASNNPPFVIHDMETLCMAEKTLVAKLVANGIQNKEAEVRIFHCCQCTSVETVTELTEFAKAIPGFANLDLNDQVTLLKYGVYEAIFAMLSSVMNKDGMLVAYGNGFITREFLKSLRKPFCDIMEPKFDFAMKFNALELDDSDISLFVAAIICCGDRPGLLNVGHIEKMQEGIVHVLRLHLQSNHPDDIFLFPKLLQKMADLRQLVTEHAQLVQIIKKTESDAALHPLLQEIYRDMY
# Rattus norvegicus [5] = assay: Antidiabetic activity against Zucker diabetic fatty rat assessed as blood glucose level at 3 mg/kg (reference value: 124 mg/dL); type: functional
# [6] = Cytotoxicity against human HEK293 cells assessed as cell viability at 100 uM measured after 48 hrs by MTS assay relative to vehicle control; type: cell-based; settings: read-out: Activity
# Rattus norvegicus [7] = assay: Antimetabolic syndrome activity in Zucker […] rat assessed as inhibition of fatty liver disease in measured as liver mass at 3 mg/kg (reference value: 8.6 g); type: functional
# Rattus norvegicus [8] = assay: Antimetabolic syndrome activity in Zucker diabetic fatty rat assessed as inhibition of fatty liver disease in measured as liver mass at 3 mg/kg (reference value: 23.9 g); type: functional
# Rattus norvegicus [9] = assay: Antidiabetic activity against Zucker diabetic fatty rat assessed as blood glucose level at 3 mg/kg after 30 mins (reference value: 270 mg/dL); type: functional
# Rattus norvegicus [10] = assay: Reduction in Zucker diabetic fatty rat body weight gain at 3 mg/kg/day measured after 3 weeks; type: functional, organism-based
# Rattus norvegicus [11] = assay: Antidiabetic activity against Zucker diabetic fatty rat assessed as blood glucose level at 3 mg/kg measured after 2 hrs of glucose intake by oral glucose tolerance test (reference value: 185 mg/dL); type: functional
# [12] = target: T3, Peroxisome proliferator-activated receptor gamma (Homo sapiens, UniProt P37231); assay: Agonist activity at human PPARgamma expressed in HEK293 cells cotransfected with PPREx4-TK-luc assessed as activation of luciferase activity measured after 48 hrs by transactivation assay; type: cell-based
# T3 sequence (P37231 whole entry): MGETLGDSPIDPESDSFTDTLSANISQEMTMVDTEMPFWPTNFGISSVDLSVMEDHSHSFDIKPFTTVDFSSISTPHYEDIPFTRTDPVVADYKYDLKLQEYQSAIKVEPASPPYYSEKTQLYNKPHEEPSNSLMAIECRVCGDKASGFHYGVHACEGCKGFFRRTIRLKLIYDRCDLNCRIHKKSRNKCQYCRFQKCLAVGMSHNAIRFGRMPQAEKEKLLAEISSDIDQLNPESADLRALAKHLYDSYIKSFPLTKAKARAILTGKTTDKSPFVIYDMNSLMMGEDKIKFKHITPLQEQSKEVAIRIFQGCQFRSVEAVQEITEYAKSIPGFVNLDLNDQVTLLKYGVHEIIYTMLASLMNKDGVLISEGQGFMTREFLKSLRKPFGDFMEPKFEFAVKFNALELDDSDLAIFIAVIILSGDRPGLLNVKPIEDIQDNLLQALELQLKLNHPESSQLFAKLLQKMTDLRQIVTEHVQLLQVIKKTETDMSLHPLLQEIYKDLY
SMILES,pEC50 [1],pEC50 [4],pEC50 [12],"viability at 48 h, 10 µM [2] [%]",Activity (Rattus norvegicus [3]) [g],Activity (Rattus norvegicus [5]) [mg/dL],"viability at 48 h, 100 µM [6] [%]",Activity (Rattus norvegicus [7]) [g],Activity (Rattus norvegicus [8]) [g],Activity (Rattus norvegicus [9]) [mg/dL],Activity (Rattus norvegicus [10]),Activity (Rattus norvegicus [11]) [mg/dL]
COc1cc(OC)cc(-c2coc3cc(O)ccc3c2=O)c1,4.77,–,–,80,–,–,–,–,–,–,–,–
CC(C)(Oc1ccc(CCNC(=O)c2ccc(Cl)cc2)cc1)C(=O)O [BEZAFIBRATE],–,–,4.15,76,–,–,73.7,–,–,–,–,–

# Second part, led by results:
pEC50 [1],pEC50 [4],pEC50 [12],SMILES,"viability at 48 h, 10 µM [2] [%]",Activity (Rattus norvegicus [3]) [g],Activity (Rattus norvegicus [5]) [mg/dL],"viability at 48 h, 100 µM [6] [%]",Activity (Rattus norvegicus [7]) [g],Activity (Rattus norvegicus [8]) [g],Activity (Rattus norvegicus [9]) [mg/dL],Activity (Rattus norvegicus [10]),Activity (Rattus norvegicus [11]) [mg/dL]
4.91,4.48,–,COc1cccc(-c2coc3cc(O)ccc3c2=O)c1,> 90,94,113,74,8.3,19.7,247,Active,154
4.65,–,–,O=c1c(-c2ccc3c(c2)OCO3)coc2cc(O)ccc12 [PSEUDOBAPTOGENIN],> 90,–,–,–,–,–,–,–,–
4.61,4.64,–,O=c1c(-c2ccc(F)cc2)coc2cc(O)ccc12,78,–,–,–,–,–,–,–,–

# Source: ChEMBL document CHEMBL2331465, “The discovery of novel isoflavone pan peroxisome proliferator-activated receptor agonists” (Bioorg Med Chem, 2013)
